# Data published in patent US8697694B2, “Substituted pyridine and pyrimidine derivatives and their use in treating viral infections” (priority 2008, dated 2014).
# Tested on: HCV replicon cells
# Assay: Cell-based HCV replicon assay (replicon RNA level by real time PCR, Taqman)
# Conditions: Hepatitis C virus, 72 h, HCV replicon cells, harvested day 3, replicon RNA by real time PCR; given as number; read-out: EC90 (μM) range
# Outline: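 HCV replicon cells treated 3 days with 10 serial 2-fold compound dilutions (top 25 μM to 1 μM; 0.5% DMSO, 10% FBS). Replicon RNA quantified by multiplex Taqman RT-PCR (NS5B amplicon, GAPDH control); EC50 and EC90 = concentrations giving ΔCT of 1 and 3.2 over baseline.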
row,Structure (SMILES),EC90
1,COCCNc1nc(C)c(-c2cc3cc(OC(C)C)nc(C)c3o2)c(N[C@@H]2C[C@H](CO)[C@@H](O)[C@H]2O)n1 [Example 37],0.3 µM
2,Cc1nc(NCC(F)(F)F)nc(N[C@H]2C[C@H](O)[C@@H]3C[C@@H]32)c1-c1nc2ccccc2s1 [Example 53],2.1 µM

# Same assay, conditions: Hepatitis C virus, 72 h, HCV replicon cells, harvested day 3, replicon RNA by real time PCR; reported as range class; read-out: EC90 (μM) range
row,Structure (SMILES),EC90
1,Nc1nc(Cl)c(-c2cncs2)c(N[C@@H]2C[C@H](CO)[C@@H](O)[C@H]2O)n1 [Example 163],> 5 µM
2,Nc1nc(Cl)c(-c2cc3cc(C(F)(F)F)ccc3o2)c(N[C@@H]2C[C@H](CO)[C@@H](O)[C@H]2O)n1 [Example 108],> 5 µM
3,CC(=O)c1ccc(-c2c(Cl)nc(N)nc2N[C@@H]2C[C@H](CO)[C@@H](O)[C@H]2O)s1 [Example 154],> 5 µM
4,Nc1nc(Cl)c(-c2nccs2)c(N[C@@H]2C[C@H](CO)[C@@H](O)[C@H]2O)n1 [Example 104],> 5 µM
5,OC[C@H]1C[C@@H](Nc2nc(NCC(F)F)nc(Cl)c2-c2nc3ccccc3s2)[C@H](O)[C@@H]1O [Example 214],< 0.5 µM
6,CC(=O)OCCNc1nc(Cl)c(-c2nc3ccccc3s2)c(N[C@@H]2C[C@H](CO)[C@@H](O)[C@H]2O)n1 [Example 209],< 0.5 µM
7,COCc1cc2cc(-c3c(Cl)nc(N)nc3N[C@@H]3C[C@H](CO)[C@@H](O)[C@H]3O)oc2cn1 [Example 310],< 0.5 µM
8,Nc1nc(N[C@@H]2C[C@H](CO)[C@@H](O)[C@H]2O)c(-c2ccccn2)c(-c2ccccn2)n1 [Example 162],> 5 µM

# Same assay, conditions: Hepatitis C virus, 72 h, HCV replicon cells, harvested on day 3, replicon RNA by real time PCR; calculated EC90 reported as range class; read-out: EC90 (μM) range
row,Structure (SMILES),EC90
1,Cc1nc(NCCN(C)C)nc(N[C@@H]2C[C@H](CO)[C@H]3OC(C)(C)O[C@H]32)c1-c1nc2ccccc2s1 [Example 245],> 5 µM
2,Cc1ccc(CNc2nc(C)c(-c3nc4ccccc4s3)c(N[C@@H]3C[C@H](CO)[C@@H](O)[C@H]3O)n2)cc1 [Example 490],< 0.5 µM
3,Cc1nc(NCc2ccccc2)nc(N[C@@H]2C[C@H](CO)[C@@H](O)[C@H]2O)c1-c1nc2ccccc2s1 [Example 431],< 0.5 µM
4,Cc1nc(NCCc2ccccc2)nc(N[C@@H]2C[C@H](CO)[C@@H](O)[C@H]2O)c1-c1nc2ccccc2s1 [Example 445],< 0.5 µM
5,COCc1cc2cc(-c3c(C)nc(NCC(C)(C)C)nc3N[C@@H]3C[C@H](CO)[C@@H](O)[C@H]3O)oc2cn1 [Example 715],< 0.5 µM
6,C[C@H](Nc1nc(Cl)c(-c2nc3ccccc3s2)c(N[C@@H]2C[C@H](CO)[C@@H](O)[C@H]2O)n1)c1ccccc1 [Example 440],0.5 to 5 µM
7,Cc1cccnc1CNc1nc(C)c(-c2nc3ccccc3s2)c(N[C@@H]2C[C@H](CO)[C@H]3OC(C)(C)O[C@H]32)n1 [Example 498],> 5 µM
8,Cc1nc(NCc2ccco2)nc(N[C@@H]2C[C@H](CO)[C@H]3OC(C)(C)O[C@H]32)c1-c1nc2ccccc2s1 [Example 469],< 0.5 µM
9,Cc1cc(C)cc(CNc2nc(C)c(-c3nc4ccccc4s3)c(N[C@@H]3C[C@H](CO)[C@H]4OC(C)(C)O[C@H]43)n2)c1 [Example 712],< 0.5 µM
10,COc1cc(CNc2nc(C)c(-c3nc4ccccc4s3)c(N[C@@H]3C[C@H](CO)[C@@H](O)[C@H]3O)n2)cc(OC)c1 [Example 701],< 0.5 µM
11,Cc1ccccc1CNc1nc(C)c(-c2nc3ccccc3s2)c(N[C@@H]2C[C@H](CO)[C@@H](O)[C@H]2O)n1 [Example 488],< 0.5 µM
12,CCc1cc2cc(-c3c(C)nc(NCc4cc(C)on4)nc3N[C@@H]3C[C@H](CO)[C@@H](O)[C@H]3O)oc2cn1 [Example 703],< 0.5 µM
13,CCOCCNc1nc(C)c(-c2nc3cc(NC)ccc3s2)c(N[C@@H]2C[C@H](CO)[C@@H](O)[C@H]2O)n1 [Example 259],< 0.5 µM
14,Cc1nc(NCc2cc3ccccc3s2)nc(N[C@@H]2C[C@H](CO)[C@@H](O)[C@H]2O)c1-c1nc2ccccc2s1 [Example 478],< 0.5 µM
15,CCc1cc2cc(-c3c(Cl)nc(NCC(F)(F)F)nc3N[C@@H]3C[C@H](CO)[C@@H](O)[C@H]3O)oc2cn1 [Example 516],< 0.5 µM
16,CCc1cc2cc(-c3c(C)nc(NCC(F)(F)F)nc3N[C@@H]3C[C@H](CO)[C@@H](O)[C@H]3O)oc2cn1 [Example 517],< 0.5 µM

# Same assay, conditions: Hepatitis C virus, 72 h, HCV replicon cells, replicon RNA level by real time PCR (Taqman), harvested on day 3; calculated EC90 reported as range class; read-out: EC90 (μM) range
row,Structure (SMILES),EC90
1,Cc1nc(Nc2ccc(F)cc2)nc(N[C@@H]2C[C@H](CO)[C@@H](O)[C@H]2O)c1-c1nc2cnccc2s1 [Example 1053],< 0.5 µM
2,COc1ccccc1Nc1nc(C)c(-c2nc3ccccc3s2)c(N[C@@H]2C[C@H](CO)[C@@H](O)[C@H]2O)n1 [Example 1123],0.5 to 5 µM
3,Cc1nc(NCc2ccco2)nc(N[C@@H]2C[C@H](CO)[C@@H](O)[C@H]2O)c1-c1nc2ccccc2s1 [Example 1110],< 0.5 µM
4,COc1cc(OC)cc(C(C)Nc2nc(C)c(-c3nc4cnccc4s3)c(N[C@@H]3C[C@H](CO)[C@@H](O)[C@H]3O)n2)c1 (some centres unmarked) [Example 1306],< 0.5 µM
5,Cc1nc(N)nc(N[C@@H]2C[C@H](CO)[C@@H](O)[C@H]2O)c1-c1nc2cnccc2s1 [Example 1325],0.5 to 5 µM
6,Cc1nc(NCc2cccc(CN(C)C)c2)nc(N[C@@H]2C[C@H](CO)[C@H]3OC(C)(C)O[C@H]32)c1-c1nc2ccccc2s1 [Example 1118],> 5 µM

# Same assay, conditions: Hepatitis C virus, 72 h, HCV replicon cells, replicon RNA level by real time PCR, harvested day 3; read-out: EC90 (μM) range
row,Structure (SMILES),EC90
1,Cc1ccc([C@@H](C)Nc2nc(C)c(-c3nc4c(C)nccc4s3)c(N[C@@H]3C[C@H](CO)[C@@H](O)[C@H]3O)n2)cc1F [Example 1358],< 0.5 µM
2,CC(=O)C1=C[C@@H](O)[C@H](Nc2nc(NCC(F)(F)F)nc(C)c2-c2nc3ccccc3s2)C1 [Example 1636],< 0.5 µM
3,Cc1nc(NCC(F)(F)F)nc(NC[C@@H]2CC2(CO)CO)c1-c1nc2ccccc2s1 [Example 1618],0.5 to 5 µM
4,Cc1nc(C(N)=O)nc(N[C@@H]2C[C@H](CO)[C@H]3OC(C)(C)O[C@H]32)c1-c1nc2ccccc2s1 [Example 1902],> 5 µM
5,Cc1ccc([C@@H](C)Nc2nc(C)c(-c3nc4cnccc4s3)c(N[C@@H]3C[C@H](CS(C)(=O)=O)[C@@H](O)[C@H]3O)n2)cc1 [Example 1368],< 0.5 µM
6,CC[C@@H](Nc1nc(C)c(-c2nc3c(C)nccc3s2)c(N[C@@H]2C[C@H](CO)[C@@H](O)[C@H]2O)n1)c1ccc(C)cc1 [Example 1363],< 0.5 µM
7,Cc1nc(NC2CC2)nc(N[C@@H]2C[C@H](CO)[C@@H](O)[C@H]2O)c1-c1nc2c(C3CC3)nccc2s1 [Example 1402],< 0.5 µM
8,Cc1nc(NCC(F)(F)F)nc(NC2CCNCC2)c1-c1nc2ccccc2s1 [Example 1516],0.5 to 5 µM
9,CCCc1nccc2sc(-c3c(C)nc(N[C@H](C)C4CC4)nc3N[C@@H]3C[C@H](CN(C)S(C)(=O)=O)[C@@H](O)[C@H]3O)nc12 [Example 1389],< 0.5 µM
10,Cc1nc(NCC(F)(F)F)nc(N[C@@H]2C[C@H](CNS(=O)(=O)CCN)[C@@H](O)[C@H]2O)c1-c1nc2ccccc2s1 [Example 1518],> 5 µM
11,Cc1nc(NCC(F)(F)F)nc(N[C@@H]2CC[C@@H](O)[C@@]2(C)O)c1-c1nc2c(C)nccc2s1 [Example 1816],< 0.5 µM
12,Cc1nc(N[C@H](C)c2ccc(OC(F)(F)F)cc2)nc(N[C@@H]2CC[C@@H](O)[C@@]2(C)O)c1-c1nc2cnccc2s1 [Example 1542],0.5 to 5 µM
13,Cc1ccc([C@@H](C)Nc2nc(C)c(-c3nc4c(CC(C)C)nccc4s3)c(N[C@@H]3C[C@H](CO)[C@@H](O)[C@H]3O)n2)cc1 [Example 1372],< 0.5 µM
14,Cc1nc(NCC(F)(F)F)nc(N[C@H]2CN[C@@H](CO)C2)c1-c1nc2ccccc2s1 [Example 1349],> 5 µM
15,COc1ccc([C@H](Nc2nc(C)c(-c3nc4c(C)nccc4s3)c(N[C@@H]3C[C@H](CO)[C@@H](O)[C@H]3O)n2)C(F)(F)F)cc1 [Example 1540],< 0.5 µM
16,Cc1nc(N[C@@H](c2ccccc2)C(F)(F)F)nc(N[C@@H]2C[C@H](CO)[C@@H](O)[C@H]2O)c1-c1nc2c(C)nccc2s1 [Example 1353],< 0.5 µM
17,Cc1nc(NCC(F)(F)F)nc(N[C@@H]2C[C@H](C)[C@@H](O)[C@H]2O)c1-c1nc2ccccc2s1 [Example 1630],< 0.5 µM
18,CCOc1cc2sc(-c3c(C)nc(NCC4CC4)nc3N[C@@H]3C[C@H](CO)[C@@H](O)[C@H]3O)nc2c(C)n1 [Example 1374],0.5 to 5 µM
19,Cc1nc(NCC2CC2)nc(N[C@@H]2C[C@H](C(C)O)[C@@H](O)[C@H]2O)c1-c1nc2cnccc2s1 (some centres unmarked) [Example 1641],< 0.5 µM
20,Cc1nc(N[C@H](C)c2ccc(-n3cccn3)cc2)nc(N[C@@H]2C[C@H](CO)[C@@H](O)[C@H]2O)c1-c1nc2ccccc2s1 [Example 1365],< 0.5 µM
21,Cc1nc(Nc2cccc3cccnc23)nc(N[C@@H]2C[C@H](CO)[C@@H](O)[C@H]2O)c1-c1nc2ccccc2s1 [Example 1620],> 5 µM
22,Cc1nc(NC(C)c2cccnc2)nc(N[C@@H]2C[C@H](CO)[C@@H](O)[C@H]2O)c1-c1nc2ccccc2s1 (some centres unmarked) [Example 1802],0.5 to 5 µM
23,Cc1nc(NCC(F)(F)F)nc(N[C@@H]2C[C@H](Cn3ccnn3)[C@@H](O)[C@H]2O)c1-c1nc2ccccc2s1 [Example 1538],< 0.5 µM
24,COc1ccc([C@@H](C)Nc2nc(C)c(-c3nc4c(C)nccc4s3)c(N[C@@H]3C[C@H](CO)[C@@H](O)[C@H]3O)n2)cc1 [Example 1529],< 0.5 µM
25,Cc1ccc(CCNc2nc(C)c(-c3nc4ccccc4s3)c(N[C@@H]3C[C@H](CO)[C@@H](O)[C@H]3O)n2)s1 [Example 1812],0.5 to 5 µM
26,Cc1nc(NCC(F)(F)F)nc(N[C@@H]2C[C@H](C(O)C(C)C)[C@@H](O)[C@H]2O)c1-c1nc2ccccc2s1 (some centres unmarked) [Example 1638],0.5 to 5 µM
27,Cc1nc(NCCc2cccs2)nc(N[C@@H]2C[C@H](CO)[C@@H](O)[C@H]2O)c1-c1nc2ccccc2s1 [Example 1805],< 0.5 µM
